Data as given in ChEMBL document CHEMBL5375979, “Chemical, Biochemical, Cellular, and Physiological Characterization of Leucettinib-21, a Down Syndrome and Alzheimer's Disease Drug Candidate” (J Med Chem, 2023).

What was measured:
[1] = biological target: Dual specificity protein kinase CLK1 (Homo sapiens, UniProt P49759)
[2] = biological target: Dual specificity protein kinase CLK4 (Homo sapiens, UniProt Q9HAZ1)
[3] = biological target: Cyclin-dependent kinase 5 (Homo sapiens, UniProt Q00535)
[4] = biological target: Casein kinase I; format: protein assay, Homo sapiens
[5] = biological target: Dual specificity protein kinase CLK2 (Homo sapiens, UniProt P49760)
Dual specificity protein kinase CLK2, sequence (P49760 whole entry): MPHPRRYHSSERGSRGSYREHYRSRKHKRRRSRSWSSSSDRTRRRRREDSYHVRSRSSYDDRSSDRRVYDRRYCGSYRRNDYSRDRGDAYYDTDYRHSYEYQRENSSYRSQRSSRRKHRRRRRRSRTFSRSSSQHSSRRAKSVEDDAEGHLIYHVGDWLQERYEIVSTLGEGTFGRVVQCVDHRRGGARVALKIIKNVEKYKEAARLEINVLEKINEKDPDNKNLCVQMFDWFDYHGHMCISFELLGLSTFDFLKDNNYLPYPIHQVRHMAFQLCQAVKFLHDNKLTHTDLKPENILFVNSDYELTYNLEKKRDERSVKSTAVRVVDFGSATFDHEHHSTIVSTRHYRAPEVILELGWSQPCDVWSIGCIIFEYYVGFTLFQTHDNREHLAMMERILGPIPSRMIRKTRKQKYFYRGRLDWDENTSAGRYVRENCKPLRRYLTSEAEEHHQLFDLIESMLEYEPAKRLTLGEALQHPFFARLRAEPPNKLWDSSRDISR

[6] = biological target: Dual specificity protein kinase CLK3 (Homo sapiens, UniProt P49761)
Dual specificity protein kinase CLK3, sequence (P49761 whole entry): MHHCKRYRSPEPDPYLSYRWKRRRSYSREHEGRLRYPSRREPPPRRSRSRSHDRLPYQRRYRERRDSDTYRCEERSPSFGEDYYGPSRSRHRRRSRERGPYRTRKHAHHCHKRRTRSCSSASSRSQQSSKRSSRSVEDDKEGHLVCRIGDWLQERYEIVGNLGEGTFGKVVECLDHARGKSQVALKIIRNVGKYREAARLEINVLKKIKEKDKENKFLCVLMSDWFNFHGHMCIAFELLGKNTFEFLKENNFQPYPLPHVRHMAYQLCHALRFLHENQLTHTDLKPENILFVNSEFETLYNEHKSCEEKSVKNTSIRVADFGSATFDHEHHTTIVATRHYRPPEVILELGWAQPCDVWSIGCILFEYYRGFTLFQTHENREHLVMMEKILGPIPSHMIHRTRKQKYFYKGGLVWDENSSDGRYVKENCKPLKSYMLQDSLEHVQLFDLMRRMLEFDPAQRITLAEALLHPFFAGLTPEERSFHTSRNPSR

[7] = biological target: T1, Dual specificity tyrosine-phosphorylation-regulated kinase 3 (Homo sapiens, UniProt O43781)
T1 sequence (O43781 whole entry): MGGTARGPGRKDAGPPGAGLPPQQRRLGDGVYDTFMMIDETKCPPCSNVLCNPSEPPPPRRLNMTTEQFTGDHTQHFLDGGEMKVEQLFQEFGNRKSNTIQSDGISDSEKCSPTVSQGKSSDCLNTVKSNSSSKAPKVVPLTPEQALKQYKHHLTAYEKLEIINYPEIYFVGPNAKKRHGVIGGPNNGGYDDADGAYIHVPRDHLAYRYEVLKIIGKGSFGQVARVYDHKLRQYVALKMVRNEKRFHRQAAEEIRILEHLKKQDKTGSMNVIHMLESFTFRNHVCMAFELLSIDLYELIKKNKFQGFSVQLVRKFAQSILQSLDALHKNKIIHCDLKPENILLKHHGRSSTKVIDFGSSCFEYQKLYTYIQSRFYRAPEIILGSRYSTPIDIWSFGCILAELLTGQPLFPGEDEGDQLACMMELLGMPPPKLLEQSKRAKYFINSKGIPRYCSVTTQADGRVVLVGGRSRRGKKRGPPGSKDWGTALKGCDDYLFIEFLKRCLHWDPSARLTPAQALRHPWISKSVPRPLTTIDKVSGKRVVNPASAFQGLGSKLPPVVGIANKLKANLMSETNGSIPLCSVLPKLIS

[8] = biological target: T2, Dual specificity tyrosine-phosphorylation-regulated kinase 4 (Homo sapiens, UniProt Q9NR20)
T2 sequence (Q9NR20 whole entry): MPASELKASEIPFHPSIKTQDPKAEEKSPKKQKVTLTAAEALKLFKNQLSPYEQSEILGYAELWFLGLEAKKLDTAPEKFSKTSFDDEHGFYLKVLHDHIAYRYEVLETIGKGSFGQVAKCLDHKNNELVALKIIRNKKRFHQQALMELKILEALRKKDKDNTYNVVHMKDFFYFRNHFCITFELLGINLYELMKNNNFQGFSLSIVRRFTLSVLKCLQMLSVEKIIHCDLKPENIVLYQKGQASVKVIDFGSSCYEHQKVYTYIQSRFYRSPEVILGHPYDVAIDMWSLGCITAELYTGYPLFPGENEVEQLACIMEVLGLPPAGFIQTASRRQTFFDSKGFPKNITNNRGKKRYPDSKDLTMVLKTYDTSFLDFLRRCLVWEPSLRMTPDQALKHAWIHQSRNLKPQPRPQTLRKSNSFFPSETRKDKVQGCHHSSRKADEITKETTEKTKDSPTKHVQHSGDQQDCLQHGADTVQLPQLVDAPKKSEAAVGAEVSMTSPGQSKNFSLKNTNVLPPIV

[9] = biological target: Glycogen synthase kinase-3 (Homo sapiens, UniProt P49840+P49841); format: protein assay
[10] = biological target: Dual specificity tyrosine-phosphorylation-regulated kinase 1A (Homo sapiens, UniProt Q13627)
[11] = biological target: Dual specificity tyrosine-phosphorylation-regulated kinase 1B (Homo sapiens, UniProt Q9Y463)
Dual specificity tyrosine-phosphorylation-regulated kinase 1B, sequence (Q9Y463 whole entry): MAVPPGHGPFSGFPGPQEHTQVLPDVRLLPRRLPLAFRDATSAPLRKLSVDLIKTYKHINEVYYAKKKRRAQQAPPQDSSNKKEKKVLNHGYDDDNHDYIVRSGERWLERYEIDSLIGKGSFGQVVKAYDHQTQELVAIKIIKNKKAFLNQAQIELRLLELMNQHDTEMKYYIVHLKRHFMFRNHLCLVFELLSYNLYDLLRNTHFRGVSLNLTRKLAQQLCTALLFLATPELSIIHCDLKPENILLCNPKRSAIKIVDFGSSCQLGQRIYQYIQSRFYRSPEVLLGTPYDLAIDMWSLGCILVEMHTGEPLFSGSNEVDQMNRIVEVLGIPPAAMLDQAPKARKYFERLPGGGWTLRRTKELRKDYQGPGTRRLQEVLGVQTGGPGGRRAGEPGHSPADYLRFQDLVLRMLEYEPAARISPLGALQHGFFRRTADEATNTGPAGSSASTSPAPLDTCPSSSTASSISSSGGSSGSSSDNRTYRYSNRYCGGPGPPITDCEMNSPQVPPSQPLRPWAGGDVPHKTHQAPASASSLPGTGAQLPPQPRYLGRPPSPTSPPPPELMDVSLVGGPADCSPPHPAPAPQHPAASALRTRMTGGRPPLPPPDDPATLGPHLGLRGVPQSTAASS

[12] = biological target: T3, Dual specificity tyrosine-phosphorylation-regulated kinase 2 (Homo sapiens, UniProt Q92630)
T3 sequence (Q92630 whole entry): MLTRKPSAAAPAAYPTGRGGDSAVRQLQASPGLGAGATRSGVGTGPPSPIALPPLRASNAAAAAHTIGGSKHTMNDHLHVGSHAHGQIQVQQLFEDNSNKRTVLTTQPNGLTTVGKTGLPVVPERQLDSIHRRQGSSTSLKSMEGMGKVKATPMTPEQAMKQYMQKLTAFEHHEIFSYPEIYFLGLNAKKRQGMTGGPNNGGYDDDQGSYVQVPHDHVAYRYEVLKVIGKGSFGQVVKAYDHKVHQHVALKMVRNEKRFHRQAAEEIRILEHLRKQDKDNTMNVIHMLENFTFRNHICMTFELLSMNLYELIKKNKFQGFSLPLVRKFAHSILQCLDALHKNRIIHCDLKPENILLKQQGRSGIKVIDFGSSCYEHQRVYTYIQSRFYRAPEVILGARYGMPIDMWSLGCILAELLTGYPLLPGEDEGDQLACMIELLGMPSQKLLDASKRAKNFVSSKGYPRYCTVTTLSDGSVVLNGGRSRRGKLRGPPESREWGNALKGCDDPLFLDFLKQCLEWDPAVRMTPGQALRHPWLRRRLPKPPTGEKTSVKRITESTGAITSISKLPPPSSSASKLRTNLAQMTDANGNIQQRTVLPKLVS

Dual specificity protein kinase CLK4, sequence (Q9HAZ1 whole entry): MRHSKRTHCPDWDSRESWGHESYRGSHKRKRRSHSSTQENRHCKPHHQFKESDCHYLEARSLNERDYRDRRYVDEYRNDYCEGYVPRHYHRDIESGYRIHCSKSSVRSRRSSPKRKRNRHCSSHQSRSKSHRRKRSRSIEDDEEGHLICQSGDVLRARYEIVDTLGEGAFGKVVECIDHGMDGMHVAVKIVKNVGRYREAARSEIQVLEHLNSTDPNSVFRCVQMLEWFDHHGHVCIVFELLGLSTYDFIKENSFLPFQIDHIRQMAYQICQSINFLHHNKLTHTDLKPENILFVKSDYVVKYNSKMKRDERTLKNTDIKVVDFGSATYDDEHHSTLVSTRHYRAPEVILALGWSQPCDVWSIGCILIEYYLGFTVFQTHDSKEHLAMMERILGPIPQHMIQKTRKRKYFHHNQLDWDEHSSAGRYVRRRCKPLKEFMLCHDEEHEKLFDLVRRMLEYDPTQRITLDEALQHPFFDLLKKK
Cyclin-dependent kinase 5, sequence (Q00535 whole entry): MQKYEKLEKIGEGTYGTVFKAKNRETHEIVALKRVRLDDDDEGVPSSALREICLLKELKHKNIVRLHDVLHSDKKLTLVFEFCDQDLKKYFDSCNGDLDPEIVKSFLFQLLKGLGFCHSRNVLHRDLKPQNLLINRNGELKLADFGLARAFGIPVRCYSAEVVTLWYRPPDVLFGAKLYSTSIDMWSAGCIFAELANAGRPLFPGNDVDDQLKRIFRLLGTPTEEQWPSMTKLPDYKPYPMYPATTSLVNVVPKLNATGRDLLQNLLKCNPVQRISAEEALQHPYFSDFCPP
Dual specificity protein kinase CLK1, sequence (P49759 whole entry): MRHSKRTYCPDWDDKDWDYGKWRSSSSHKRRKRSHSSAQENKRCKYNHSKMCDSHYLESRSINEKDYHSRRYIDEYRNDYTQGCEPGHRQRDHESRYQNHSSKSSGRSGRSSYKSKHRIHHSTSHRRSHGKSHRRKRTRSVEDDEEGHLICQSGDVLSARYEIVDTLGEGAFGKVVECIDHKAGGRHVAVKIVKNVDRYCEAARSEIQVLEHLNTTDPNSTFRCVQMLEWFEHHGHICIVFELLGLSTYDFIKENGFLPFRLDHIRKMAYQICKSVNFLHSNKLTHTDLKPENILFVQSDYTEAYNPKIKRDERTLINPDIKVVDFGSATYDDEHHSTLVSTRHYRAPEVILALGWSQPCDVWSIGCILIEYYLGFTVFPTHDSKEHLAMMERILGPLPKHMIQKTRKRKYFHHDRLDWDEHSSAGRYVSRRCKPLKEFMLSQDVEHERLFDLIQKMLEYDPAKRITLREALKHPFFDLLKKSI

`COC[C@@H](CC(C)C)NC1=N/C(=C\c2cc3scnc3cn2)C(=O)N1` was tested, and the IC50 [1] was > 10 µM, the IC50 [2] was 6.49 µM and the IC50 [3] was > 10 µM. For the same molecule, the IC50 [4] was > 10 µM, the IC50 [5] was > 10 µM and the IC50 [6] was > 10 µM. For the same molecule, the IC50 [7] was > 10 µM, the IC50 [8] was > 10 µM and the IC50 [9] was > 10 µM.
In the case of `COC[C@@H](CC(C)C)NC1=N/C(=C\c2ccc3ncsc3c2)C(=O)N1C1CCCC1`, the IC50 [1] is reported as 2.45 µM, the IC50 [2] is reported as 1.01 µM and the IC50 [10] is reported as > 10 µM. For the same molecule, the IC50 [11] was > 10 µM, the IC50 [3] was > 10 µM and the IC50 [4] was > 10 µM. The IC50 [5] was 6.47 µM, the IC50 [6] was 5.32 µM and the IC50 [12] was 0.774 µM. The IC50 [7] was > 10 µM, the IC50 [8] was > 10 µM and the IC50 [9] was > 10 µM.
With `COC[C@@H](CC(C)C)NC1=N/C(=C\c2ccc3ncsc3c2)C(=O)N1C1CC1` the IC50 [2] was 0.24 µM, the IC50 [10] was 0.506 µM and the IC50 [3] was > 10 µM. For the same molecule, the IC50 [4] was > 10 µM, the IC50 [5] was 0.643 µM and the IC50 [6] was 1.26 µM. The IC50 [7] was 0.842 µM, the IC50 [8] was 2.86 µM and the IC50 [9] was 8.988 µM.
